Results taken from publication PMC7524750, “Dual COX and 5-LOX inhibition by clerodane diterpenes from seeds of Polyalthia longifolia (Sonn.) Thwaites” (Scientific Reports, 2020).
Like-named read-outs stand apart in the source and are kept apart here.

Columns and labels:
[1] = biological target: T1, COX-2 (Homo sapiens, UniProt P35354); experiment: Cyclooxygenase COX-2 inhibitory assay (Cayman COX inhibitor assay kit); type: biochemical; conditions: mean ± SD, n=3; for inhibition at 2.5 µg/mL / inhibition at 5 µg/mL / inhibition at 7.5 µg/mL / inhibition at 10 µg/mL: read-out: Percentage inhibition COX2
T1 construct: purchased Cayman 560131
T1 sequence (P35354 18-604): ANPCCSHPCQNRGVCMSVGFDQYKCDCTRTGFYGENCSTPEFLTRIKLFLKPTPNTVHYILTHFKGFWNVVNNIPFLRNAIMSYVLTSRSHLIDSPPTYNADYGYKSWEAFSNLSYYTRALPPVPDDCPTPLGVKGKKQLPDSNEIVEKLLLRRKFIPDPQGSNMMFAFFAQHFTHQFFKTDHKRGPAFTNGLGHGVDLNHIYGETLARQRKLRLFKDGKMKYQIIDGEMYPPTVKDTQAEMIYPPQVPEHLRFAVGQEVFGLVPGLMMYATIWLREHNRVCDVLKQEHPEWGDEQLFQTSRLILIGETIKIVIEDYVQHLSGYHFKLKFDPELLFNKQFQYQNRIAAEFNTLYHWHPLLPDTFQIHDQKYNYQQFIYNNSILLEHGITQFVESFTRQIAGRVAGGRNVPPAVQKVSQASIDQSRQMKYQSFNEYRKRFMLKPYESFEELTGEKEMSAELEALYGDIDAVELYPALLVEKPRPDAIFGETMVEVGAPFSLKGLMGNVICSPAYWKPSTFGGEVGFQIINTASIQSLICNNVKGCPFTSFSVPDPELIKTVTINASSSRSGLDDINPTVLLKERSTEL
Procedure: (§1) To 10 µl of either COX1 or COX2 added 0.1 M Tris–HCl buffer (960 µl) and different known concentrations of test samples and incubated at 37 °C for 10 min. Later 10 µl of 100 µM arachidonic acid, after 2 min 1 M HCl of 50 µl and Ellman’s reagent, were added. The absorbance was measured spectrophotometrically at 410 nm against the blank. The percentage of inhibition was deliberated with the absorbance values, and IC50 values were calculated by linear regression.

[2] = biological target: T2, 5-LOX (human recombinant) (Homo sapiens, UniProt P09917); experiment: 5-lipoxygenase inhibitory assay (5-LOX assay kit); type: biochemical; conditions: mean ± SD, n=3; for inhibition at 2.5 µg/mL / inhibition at 5 µg/mL / inhibition at 7.5 µg/mL / inhibition at 10 µg/mL: read-out: Percentage inhibition 5-LOX
T2 construct: purchased Sigma Aldrich 437996
T2 sequence (P09917 1-674): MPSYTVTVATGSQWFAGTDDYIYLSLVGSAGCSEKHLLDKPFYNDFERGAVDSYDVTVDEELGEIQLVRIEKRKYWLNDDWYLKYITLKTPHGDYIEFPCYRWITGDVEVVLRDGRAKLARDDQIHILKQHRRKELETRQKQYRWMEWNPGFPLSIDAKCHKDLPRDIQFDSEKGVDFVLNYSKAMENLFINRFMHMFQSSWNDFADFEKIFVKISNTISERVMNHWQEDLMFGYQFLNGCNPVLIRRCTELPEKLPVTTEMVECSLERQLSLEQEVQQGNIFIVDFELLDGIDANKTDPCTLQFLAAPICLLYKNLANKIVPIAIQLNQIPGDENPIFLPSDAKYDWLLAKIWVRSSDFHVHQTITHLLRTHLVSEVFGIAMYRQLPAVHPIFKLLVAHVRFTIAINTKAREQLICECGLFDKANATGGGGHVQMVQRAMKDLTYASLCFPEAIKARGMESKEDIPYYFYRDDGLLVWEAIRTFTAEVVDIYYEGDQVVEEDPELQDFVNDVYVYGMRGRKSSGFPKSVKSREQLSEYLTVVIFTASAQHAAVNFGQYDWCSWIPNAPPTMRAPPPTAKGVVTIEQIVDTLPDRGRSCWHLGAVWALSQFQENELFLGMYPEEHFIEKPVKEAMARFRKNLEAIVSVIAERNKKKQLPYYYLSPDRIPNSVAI
Procedure: To 90 µl of 5-LOX enzyme solution added different test sample concentrations, 100 µl of de chromogen, and finally added 10 µl of the substrate (arachidonic acid) and gently shake or 10 min and absorbance was measured at 490 nm against the blank. The % inhibition was deliberated with the absorbance values by which IC50 values were calculated by linear regression.

[3] = biological target: T3, COX-1 (Ovis aries, UniProt P05979); experiment: Cyclooxygenase COX-1 inhibitory assay (Cayman COX inhibitor assay kit); type: biochemical, ovine; conditions: mean ± SD, n=3; for inhibition at 2.5 µg/mL / inhibition at 5 µg/mL / inhibition at 7.5 µg/mL / inhibition at 10 µg/mL: read-out: Percentage inhibition COX1
T3 construct: purchased Cayman 560131
T3 sequence (P05979 25-600): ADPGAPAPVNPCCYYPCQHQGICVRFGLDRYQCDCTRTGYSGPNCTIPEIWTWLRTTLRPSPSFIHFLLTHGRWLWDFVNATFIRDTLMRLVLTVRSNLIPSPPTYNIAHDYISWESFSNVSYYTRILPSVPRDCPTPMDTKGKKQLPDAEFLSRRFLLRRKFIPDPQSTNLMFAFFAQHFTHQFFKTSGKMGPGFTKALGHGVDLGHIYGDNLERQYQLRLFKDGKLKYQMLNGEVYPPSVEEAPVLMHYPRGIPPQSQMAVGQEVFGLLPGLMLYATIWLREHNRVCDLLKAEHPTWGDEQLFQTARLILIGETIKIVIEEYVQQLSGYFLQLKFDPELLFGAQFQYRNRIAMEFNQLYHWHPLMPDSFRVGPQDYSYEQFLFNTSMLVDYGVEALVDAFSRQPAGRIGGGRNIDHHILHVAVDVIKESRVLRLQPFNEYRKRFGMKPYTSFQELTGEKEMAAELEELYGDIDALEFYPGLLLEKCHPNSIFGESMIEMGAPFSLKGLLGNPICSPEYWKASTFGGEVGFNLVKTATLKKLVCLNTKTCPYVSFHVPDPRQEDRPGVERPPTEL
Procedure: as §1

[4] = linear regression, read-out: IC50 values COX2 (converted)
[5] = IC50 5-LOX (concentration required for 50% inhibition), Fig. 2
[6] = linear regression, read-out: IC50 values 5-LOX (converted)
[7] = linear regression, read-out: IC50 values COX1 (converted)

CC1=CCCC2C1(C)CCC(C)C2(C)CCC1=CC(=O)OC1O (stereo not drawn) [Compound 5, 16α-hydroxy-cleroda-3,13(14)Z-dien-15,16-olide]
inhibition at 2.5 µg/mL [1]: 46.6 ± 0.9%
inhibition at 5 µg/mL [1]: 57.2 ± 1.57%
inhibition at 7.5 µg/mL [1]: 69.3 ± 3.66%
inhibition at 10 µg/mL [1]: 79.4 ± 4.39%
IC50 ([1]; Fig. 2, read-out: IC50 COX-2): 10.3 ± 0.26 µM
IC50 [1, 4]: 10.3 µM
inhibition at 2.5 µg/mL [2]: 30 ± 1.04%
inhibition at 5 µg/mL [2]: 54.1 ± 1.1%
inhibition at 7.5 µg/mL [2]: 67.2 ± 4.61%
inhibition at 10 µg/mL [2]: 75.8 ± 2.97%
IC50 [2, 5]: 14.4 ± 0.32 µM
IC50 [2, 6]: 14.4 µM
inhibition at 2.5 µg/mL [3]: 42.3 ± 2.05%
inhibition at 5 µg/mL [3]: 79.5 ± 1.01%
inhibition at 7.5 µg/mL [3]: 86.5 ± 1.27%
inhibition at 10 µg/mL [3]: 92.9 ± 2.46%
IC50 ([3]; Fig. 2, read-out: IC50 COX-1): 9.46 ± 0.33 µM
IC50 [3, 7]: 9.45 µM

O=C(O)Cc1ccccc1Nc1c(Cl)cccc1Cl [Diclofenac, reference compound]
inhibition at 2.5 µg/mL [2]: 12.4 ± 1.49%
inhibition at 5 µg/mL [2]: 23.1 ± 4.16%
inhibition at 7.5 µg/mL [2]: 42.8 ± 1.82%
inhibition at 10 µg/mL [2]: 64.4 ± 0.72%

C=C1C(O)CCC2C1(C)CCC(C)C2(C)CCC1=CC(=O)OC1O (stereo not drawn) [Compound 4, 3α,16α-dihydroxy-cleroda-4(18),13(14)Z-dien-15,16-olide]
inhibition at 2.5 µg/mL [1]: 36.8 ± 2.52%
inhibition at 5 µg/mL [1]: 55.21 ± 0.43%
inhibition at 7.5 µg/mL [1]: 67.1 ± 2.47%
inhibition at 10 µg/mL [1]: 75.1 ± 2.73%
IC50 ([1]; Fig. 2, read-out: IC50 COX-2): 12.8 ± 0.21 µM
IC50 [1, 4]: 12.8 µM
inhibition at 2.5 µg/mL [2]: 23.2 ± 2.28%
inhibition at 5 µg/mL [2]: 44.3 ± 1.68%
inhibition at 7.5 µg/mL [2]: 55.4 ± 0.65%
inhibition at 10 µg/mL [2]: 67.2 ± 2.67%
IC50 [2, 5]: 16.9 ± 0.56 µM
IC50 [2, 6]: 17 µM
inhibition at 2.5 µg/mL [3]: 40.8 ± 0.79%
inhibition at 5 µg/mL [3]: 61.1 ± 0.69%
inhibition at 7.5 µg/mL [3]: 72.3 ± 3.77%
inhibition at 10 µg/mL [3]: 79.5 ± 2.53%
IC50 ([3]; Fig. 2, read-out: IC50 COX-1): 10.8 ± 0.17 µM
IC50 [3, 7]: 10.9 µM

C=C1CCCC2C1(C)CCC(C)C2(C)CCC1=CC(=O)OC1O (stereo not shown) [Compound 3, 16-hydroxy-cleroda-4(18),13-dien-16,15-olide]
inhibition at 2.5 µg/mL [1]: 48.8 ± 0.96%
inhibition at 5 µg/mL [1]: 63.2 ± 1.41%
inhibition at 7.5 µg/mL [1]: 73.3 ± 1.15%
inhibition at 10 µg/mL [1]: 82.97 ± 0.44%
IC50 ([1]; Fig. 2, read-out: IC50 COX-2): 8.49 ± 0.55 µM
IC50 [1, 4]: 8.51 µM
inhibition at 2.5 µg/mL [2]: 34.7 ± 1.47%
inhibition at 5 µg/mL [2]: 59.3 ± 0.66%
inhibition at 7.5 µg/mL [2]: 77.5 ± 0.92%
inhibition at 10 µg/mL [2]: 85 ± 1.05%
IC50 [2, 5]: 12.7 ± 0.21 µM
IC50 [2, 6]: 12.7 µM
inhibition at 2.5 µg/mL [3]: 38.1 ± 0.72%
inhibition at 5 µg/mL [3]: 61.5 ± 1.84%
inhibition at 7.5 µg/mL [3]: 68.3 ± 2.99%
inhibition at 10 µg/mL [3]: 83.9 ± 2.27%
IC50 ([3]; Fig. 2, read-out: IC50 COX-1): 11.8 ± 0.19 µM
IC50 [3, 7]: 11.8 µM

CC1=CCCC2C1(C)CCC(C)C2(C)CCC(=CC(=O)O)CO (stereo not shown) [Compound 2, 16-hydroxy-cleroda-3,13-dien-15-oic acid]
inhibition at 2.5 µg/mL [1]: 34.5 ± 2.11%
inhibition at 5 µg/mL [1]: 59.2 ± 0.77%
inhibition at 7.5 µg/mL [1]: 77.4 ± 0.9%
inhibition at 10 µg/mL [1]: 85 ± 1.17%
IC50 ([1]; Fig. 2, read-out: IC50 COX-2): 12.7 ± 0.34 µM
IC50 [1, 4]: 12.7 µM
inhibition at 2.5 µg/mL [2]: 12.5 ± 1.45%
inhibition at 5 µg/mL [2]: 24.5 ± 1.92%
inhibition at 7.5 µg/mL [2]: 40 ± 4.41%
inhibition at 10 µg/mL [2]: 51.2 ± 1.35%
IC50 [2, 5]: 30.5 ± 0.53 µM
IC50 [2, 6]: 30.5 µM
inhibition at 2.5 µg/mL [3]: 16.3 ± 3%
inhibition at 5 µg/mL [3]: 28.3 ± 3.1%
inhibition at 7.5 µg/mL [3]: 42.5 ± 1.68%
inhibition at 10 µg/mL [3]: 50.9 ± 0.6%
IC50 ([3]; Fig. 2, read-out: IC50 COX-1): 30.44 ± 0.3 µM
IC50 [3, 7]: 30.4 µM

CC1=CCCC2C1(C)CCC(C)C2(C)CCC(C=O)=CC(=O)O (stereo not shown) [Compound 1, 16-oxo-cleroda-3,13(14)E-dien-15-oic acid]
inhibition at 2.5 µg/mL [1]: 10.7 ± 2.91%
inhibition at 5 µg/mL [1]: 23.4 ± 3.07%
inhibition at 7.5 µg/mL [1]: 42.8 ± 0.72%
inhibition at 10 µg/mL [1]: 62.9 ± 3.84%
IC50 ([1]; Fig. 2, read-out: IC50 COX-2): 26.4 ± 0.45 µM
IC50 [1, 4]: 26.4 µM
inhibition at 2.5 µg/mL [2]: 13.4 ± 0.72%
inhibition at 5 µg/mL [2]: 25.7 ± 2.74%
inhibition at 7.5 µg/mL [2]: 41.1 ± 1.43%
inhibition at 10 µg/mL [2]: 65.4 ± 0.93%
IC50 [2, 5]: 26.4 ± 0.39 µM
IC50 [2, 6]: 26.4 µM
inhibition at 2.5 µg/mL [3]: 21.8 ± 1.55%
inhibition at 5 µg/mL [3]: 40.3 ± 3.77%
inhibition at 7.5 µg/mL [3]: 47.1 ± 2.71%
inhibition at 10 µg/mL [3]: 60.4 ± 4.48%
IC50 ([3]; Fig. 2, read-out: IC50 COX-1): 25.1 ± 0.99 µM
IC50 [3, 7]: 25.1 µM
